Data on two substances can be found in patent publication US6365746B1, “Stable and water soluble bis Au(I) complexes and their synthesis” (Eastman Kodak Company, priority 1997, dated 2002).

Holding throughout (type): physicochemical
A short description of data set [1]: Stability study of aqueous solution monitored by UV-visible spectroscopy. Here is the method: Stability Study of Compound S. To a 1000 mL borosilicate volumetric flask was added 14.7 g of Compound S and water. An aliquot of the gold solution was placed into a quartz cuvette and the keeping characteristics of the solution were monitored using UV-visible spectroscopy over the course of 25 days. A compound, TTT, a known sensitizer having a mesoionic heterocycle was similarly monitored.

Data set [2] can be described thus: Solubility study in water (gravimetric, filtrate residue). Particulars: stirred in the dark 1 hr, filtered, duplicate. Here is the method: Solubility Study of compound S.5 H2O. To a 10 mL borosilicate volumetric flask was added 0.25 g of Compound S and a stir bar. Water was added to the 10 mL mark and the suspension was stirred in the dark for 1 hr. The suspension was filtered through a 0.25 μm syringe filter and 3.00 mL of the filtrate was placed into a tared porcelain dish (dried by heating at 125° C. for 12 hours followed by cooling to ambient temperature in a CaCl2 desiccator). The sample was placed into a vacuum desiccator and subjected to vacuum for ca. 60 hours. Finally, the dish and residue were weighed and the mass of the residue was determined by difference.

A short description of data set [3]: Stability in 0.025 N H2SO4 at room temperature (gold precipitation). Particulars: 200 mg in 600 mL 0.025 N H2SO4, room temperature, after two weeks (duration of the study). Here is the method: Stability of Compound S versus Compound TTT. Two different batches of Compound TTT and Compound S, each weighing 200 mg, were dissolved in 600 mL of a 0.025 N H2SO4. The solutions were allowed to stand at room temperature. One of the solutions containing Compound TTT had brownish colloidal gold precipitated within 5 days and the other batch had purplish gold specks after 7 days.

Consider “bis(1,4,5-trimethyl-1,2,4-triazolium-3-thiolate) gold (I) tetrafluoroborate [TTT, reference compound]”, for which the “Change in Absorbance @ 235 nm” value in data set [1] (day 1) was 0; in data set [1] (day 4) it was 0.0222; in data set [1] (day 8) it was 0.0653; in data set [1] (day 13), 0.0868; in data set [1] (day 20) it was 0.1108; in data set [1] (day 25), 0.1340.
In the case of “potassium bis(1-[3-(2-sulfonatobenzamido)phenyl]-5-mercaptotetrazole potassium salt) aurate(I) pentahydrate [Compound S]”, the average solubility in data set [2] worked out at 33.6 mg/mL. In addition, the “Change in Absorbance @ 235 nm” value was found to be 0 in data set [1] (day 1); 0.0013 in data set [1] (day 4); 0.0015 in data set [1] (day 8); 0.0058 in data set [1] (day 13); 0.0070 in data set [1] (day 20); 0.0064 in data set [1] (day 25). Also, in data set [3], the “gold precipitate from the solution” value is recorded as “no gold precipitate”.
